Measured values from patent publication US6723741B2, “Benzimidazoles and benzothiazoles and uses thereof” (Synaptic Pharmaceutical Corporation, priority 1996, dated 2004).
Structures can show the parent of a compound that is named as a salt.

Assays:
[1] = target: human α2A adrenergic receptor (Homo sapiens, UniProt P08913); test: Agonist activity: inhibition of forskolin-stimulated cAMP synthesis
[2] = target: human α2C adrenergic receptor (Homo sapiens, UniProt P18825); test: Radioligand binding assay, [3H]rauwolscine competition
[3] = target: T1, human α2B adrenergic receptor (Homo sapiens, UniProt P18089); test: Radioligand binding assay, [3H]rauwolscine competition
T1 construct: expressed in transfected cells
T1 sequence (P18089 1-450): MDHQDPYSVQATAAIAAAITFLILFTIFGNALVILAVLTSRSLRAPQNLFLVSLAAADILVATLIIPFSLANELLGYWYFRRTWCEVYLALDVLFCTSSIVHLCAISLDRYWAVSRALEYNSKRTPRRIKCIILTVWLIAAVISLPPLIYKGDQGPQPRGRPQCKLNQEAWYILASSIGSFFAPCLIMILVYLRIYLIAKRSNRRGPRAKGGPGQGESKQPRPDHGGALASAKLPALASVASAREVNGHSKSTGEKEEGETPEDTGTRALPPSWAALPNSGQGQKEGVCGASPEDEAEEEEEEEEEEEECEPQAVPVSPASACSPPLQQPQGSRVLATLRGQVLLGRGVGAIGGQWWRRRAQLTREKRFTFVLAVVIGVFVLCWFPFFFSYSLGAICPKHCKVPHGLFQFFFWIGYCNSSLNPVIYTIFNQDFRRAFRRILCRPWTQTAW

[4] = target: T2, human α2A adrenergic receptor (Homo sapiens, UniProt P08913); test: as above; design: expressed in transfected cells
T2 sequence (P08913 1-465): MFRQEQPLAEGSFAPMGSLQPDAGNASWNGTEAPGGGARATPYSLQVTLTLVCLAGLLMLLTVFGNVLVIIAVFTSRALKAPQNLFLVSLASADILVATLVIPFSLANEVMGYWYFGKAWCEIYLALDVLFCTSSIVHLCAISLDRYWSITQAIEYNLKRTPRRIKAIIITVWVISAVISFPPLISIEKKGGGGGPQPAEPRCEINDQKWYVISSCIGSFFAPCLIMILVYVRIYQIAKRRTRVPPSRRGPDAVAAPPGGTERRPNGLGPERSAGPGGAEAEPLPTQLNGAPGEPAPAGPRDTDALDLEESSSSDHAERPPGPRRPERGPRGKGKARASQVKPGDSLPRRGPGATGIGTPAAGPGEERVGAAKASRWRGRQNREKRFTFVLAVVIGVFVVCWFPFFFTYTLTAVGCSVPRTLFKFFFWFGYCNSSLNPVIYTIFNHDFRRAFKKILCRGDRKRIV

[5] = target: T1, human α2B adrenergic receptor; test: Agonist activity: inhibition of forskolin-stimulated cAMP synthesis; type: cell-based
[6] = target: T3, human α2C adrenergic receptor (Homo sapiens, UniProt P18825); test: as above; type: cell-based
T3 construct: The entire coding region of α2C (1383 bp), including 2 bp of 5′ UT and 400 bp of 3′ UT; expressed in transfected cells
T3 sequence (P18825 1-462): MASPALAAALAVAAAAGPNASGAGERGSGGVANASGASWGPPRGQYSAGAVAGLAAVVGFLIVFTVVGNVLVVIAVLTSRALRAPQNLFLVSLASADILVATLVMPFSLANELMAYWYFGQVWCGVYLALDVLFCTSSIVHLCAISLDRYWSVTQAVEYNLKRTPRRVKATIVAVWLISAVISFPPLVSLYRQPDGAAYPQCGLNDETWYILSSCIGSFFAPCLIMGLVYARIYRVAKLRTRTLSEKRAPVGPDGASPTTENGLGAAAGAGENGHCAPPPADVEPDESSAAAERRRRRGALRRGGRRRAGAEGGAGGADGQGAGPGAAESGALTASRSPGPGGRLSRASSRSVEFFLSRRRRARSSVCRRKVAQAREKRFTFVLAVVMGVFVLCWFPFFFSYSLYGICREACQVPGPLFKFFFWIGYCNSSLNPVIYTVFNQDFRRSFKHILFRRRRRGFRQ

[7] = target: T2, human α2A adrenergic receptor; test: as above; remark: listed apart in the source
[8] = target: T3, human α2C adrenergic receptor; test: Radioligand binding assay, [3H]rauwolscine competition

Row | Structure (SMILES) | melting point [°C] | other results
1 | c1nc2ccc(NC3=NCCN3)cc2s1 |  | EC50 [1]: 0.417 µM; Ki [2]: 0.102 µM
2 | c1nc2cc(NC3=NCCN3)ccc2s1 (as salt: fumarate) [Example 13, 5-(2-Imidazolin-2-ylamino)benzothiazole] | 201 to 203 | 
3 | Cc1cc(NC2=NCCN2)cc2ncsc12 (as salt: fumarate) | 179 to 181 | 
4 | Cc1cc(NC2=NCCS2)cc2cc[nH]c12 [Example 8, 7-Methyl-5-(2-thiazolin-2-ylamino)indole] |  | Ki [3]: 0.0049 µM; Ki [4]: 0.000832 µM; EC50 ([5]; inhibition of forskolin-stimulated cAMP, stably transfected cells expressing human α2B, read-out: pEC50 Alpha-2 B (converted)): 0.0447 µM; I.A (Intrinsic Activity) Alpha-2 B ([5]; maximum activity relative to maximum activity induced by norepinephrine, human α2B): 0.80; EC50 ([6]; inhibition of forskolin-stimulated cAMP, stably transfected cells expressing human α2C, read-out: pEC50 Alpha-2 C (converted)): 0.00219 µM; I.A (Intrinsic Activity) Alpha-2 C ([6]; maximum activity relative to maximum activity induced by norepinephrine, human α2C): 1.00; EC50 [7]: 0.0138 µM; I.A (Intrinsic Activity) Alpha-2 A ([7]; maximum activity relative to maximum activity induced by norepinephrine, human α2A): 0.60; Ki [8]: 0.024 µM
5 | Brc1cc(NC2=NCCN2)cc2ncsc12 (as salt: fumarate) | 209 to 211 | 
6 | c1nc2ccc(NC3=NCCS3)cc2s1 |  | Ki [2]: 1.07 µM
7 | Clc1cc(NC2=NCCN2)cc2ncsc12 (as salt: fumarate) | 203 to 205 | 
8 | Cc1cc(NC2=NCCN2)cc2cc[nH]c12 (as salt: fumarate) | 224 to 226 | 
9 | Cc1c(NC2=NCCN2)ccc2ncsc12 (as salt: fumarate) | 213 to 215 | 
10 | Brc1cc(NC2=NCCN2)cc2cc[nH]c12 (as salt: fumarate) [Example 2, 7-Bromo-5-(2-imidazolin-2-ylamino)indole] | 272 to 273 | 
11 | c1nc2ccc(NC3=NCCN3)cc2s1 (as salt: fumarate) [Example 14, 6-(2-Imidazolin-2-ylamino)benzothiazole] | 215 to 216 | 
12 | Clc1cc(NC2=NCCN2)cc2cc[nH]c12 (as salt: fumarate) | 261 to 262 | 
13 | Cc1c(NC2=NCCN2)ccc2[nH]ccc12 (as salt: fumarate) | 215 to 218 | 
14 | c1nc2ccc(NC3=NCCS3)cc2s1 (as salt: fumarate) [Example 15, 6-(2-Thiazolin-2-ylamino)benzothiazole] | 181 to 183 | 
15 | Cc1cc(NC2=NCCS2)cc2cc[nH]c12 (as salt: fumarate) [Example 8, 7-Methyl-5-(2-thiazolin-2-ylamino)indole] | 200 to 202 | 
16 | CC(C)c1cc(NC2=NCCN2)cc2cc[nH]c12 (as salt: succinate) | 254 to 255 | 
17 | C=C(C)c1cc(NC2=NCCN2)cc2cc[nH]c12 (as salt: maleate) | 154 to 156 | 
18 | CCc1cc(NC2=NCCN2)cc2ncsc12 (as salt: fumarate) | 218 to 220 | 
